Where two headings read alike, the source gives them in different places.
Legend:
[1] = Pharmacokinetic study in rats after oral administration of FA decoction; format: in vivo, Sprague-Dawley rats; details: for AUC(0-t) / Cmax / Tmax / MRT last / half-life: male, Sprague-Dawley, rat plasma, n=8; for AUC(0-t): last dose day 8, plasma treated with β-glucuronidase; for MRT last: read-out: MRT(0–t); for half-life: read-out: t 1/2z (converted)
Protocol: 16 male Sprague-Dawley (SD) rats weighing 200 ± 20 g were from experimental animal center of Central South University and fostered in an environmentally controlled room (temperature: 22–26°C, humidity: 40–60%, and 12 h dark-light cycle) for 1 week before the experiment. All experimental procedures were implemented strictly according to the guidelines of the Animal Care and Use Committee, Central South University, China. This research was approved by the Animal Ethics Committee of Central South University. Rats were randomly divided into 2 groups (n=8): low-dose group (15 g/kg FA decoction) and high-dose group (30 g/kg FA decoction). The two groups were given by gavage twice a day for 7 days in succession. At the 7th day of medication, the rats were prohibited feeding for about 12 hours without restriction of water. On day 8, the rats were orally administered for the last time at 8 am, and then plasma samples (0.5 mL) were collected from the caudal vein at 5, 10, 20, 30, 60, 90, 240, 360, 480, and 600 min into heparinized vacuum tubes, followed by centrifugation at 3500 rpm (4°C) for 10 min. Then, the plasmas were obtained and immediately stored at −20°C until analysis. During the experiment, the rats were injected intraperitoneally with physiological saline for maintaining fluid balance.
(§1) Standard stock solutions were prepared by dissolving reference standards in methanol to yield concentrations of 198 µg/mL for meranzin hydrate, 128 µg/mL for naringenin, 273 µg/mL for hesperetin, and 4.56 µg/mL for SMZ. All solutions were stored at 4°C. QC samples were prepared at three concentration levels containing meranzin hydrate (6.5, 206, 3300 ng/mL), naringenin (13.9, 222, 3555 ng/mL), and hesperetin (3.7, 29.5, 236 ng/mL). Plasmas (100 µL) were spiked with β-glucuronidase (5 µL) and acetic acid buffer solution (10 µL), subsequently vortexed for 10 seconds, and incubated for 4 h at 37°C. Then, SMZ (50 µL) and methanol (135 µL) were added, ultrasound was done for 10 min, and centrifugation at 12000 rpm (4°C) for 10 min was performed. The supernatant (50 µL) was transferred, distilled water (50 µL) was added, then ultrasound and centrifugation again. At last, the supernatant of 5 µL was injected into UPLC.
The database was set up with the SPSS 17.0 software package from SPSS Inc., Chicago, Illinois (US). Differences between the two groups were analyzed by one-way analysis of variance. A two-tailed P value of <0.05 was considered statistically significant. The DAS 3.2.8 pharmacokinetic program (Chinese Pharmacological Society) was used to process pharmacokinetic parameters.
The validated method was applied to determine the plasma concentrations of meranzin hydrate, naringenin, and hesperetin in rats after oral administration of FA decoction at a dose of 15 g/kg and 30 g/kg body weight. The mean plasma concentration-time profiles of meranzin hydrate, naringenin, and hesperetin are shown in Figure 4, and the estimated pharmacokinetic parameters are illustrated in Table 5. According to DAS software, the optimal metabolism process of the 3 components in rats could be depicted as a two-compartment pharmacokinetic model.

[2] = Stability of QC samples in rat plasma (short-term, freeze-thaw, long-term); format: in vitro ADME; details: for Short-term stability, Mean ± SD: room temperature for 4 h; for Freeze-thaw stability, Mean ± SD: three freeze (−20°C) and thaw cycles; for Long-term stability, Mean ± SD: −20°C for 20 days
Protocol: as §1
(5) Stability. QC plasma samples of each concentration at low, medium, and high levels were detected. The freeze and thaw stability were investigated after three freeze (−20°C) and thaw (room temperature) cycles on consecutive days. Long-term stability was studied by storing QC samples at −20°C for 20 days. Short-term stability was assessed by analyzing QC samples kept at room temperature for 4 h.

[3] = Stability of the analytical solution of FA decoction at environmental temperature; format: physicochemical; details: FA decoction 1.7 g/mL
Protocol: The raw herb (200 g) was immersed in distilled water (1 : 8, w/v) for 0.5 h at room temperature and thereafter was boiled for 0.5 h. The filtrate was collected, and the residue was boiled again in distilled water (1 : 6, w/v) for 0.5 h. The filtrates were mixed together, filtered through a 0.45 µm porous filtration membrane, then farther concentrated in the rotary evaporator to a final concentration equivalent to 1.7 g/mL FA, and stored at −20°C until analyzed. In the experiment, FA decoction (100 µL) was precisely measured, 900 µL methanol was added, then ultrasound was done for 5 min, and it was centrifuged at 15000 rpm (4°C) for 10 min; the supernatant liquor (20 µL) was shifted to a 1.5 mL EP tube, methanol-water (780 µL) was added, and ultrasound was performed, and it was centrifuged at 15000 rpm (4°C) for 10 min again. Finally, 5 µL of the supernatant liquor was injected into the apparatus for detection.
The stability of the analytical solution at environmental temperature was studied by detecting sample solution at 0, 2, 4, 8, 12, and 24 h. The RSD values of peak areas were taken for assessment.

[4] = high level (spiked 3300.0 / 3555.0 / 236.0 ng/mL)
[5] = low level (spiked 6.5 / 13.9 / 3.7 ng/mL)
[6] = medium level (spiked 206.0 / 222.0 / 29.5 ng/mL)

O=C1C[C@@H](c2ccc(O)cc2)Oc2cc(O)cc(O)c21 [Naringenin, naringenin]
AUC(0-t) ([1]; oral FA decoction 15 g/kg twice a day for 7 days): 3660 ± 861 ng·h/mL
Cmax ([1]; oral FA decoction 15 g/kg): 694 ± 208 ng/mL
Tmax ([1]; oral FA decoction 15 g/kg): 1.13 ± 0.35 h
MRT last ([1]; oral FA decoction 15 g/kg): 4.06 ± 0.33 h
half-life ([1]; oral FA decoction 15 g/kg): 8.59 ± 9.25 h
AUC(0-t) ([1]; oral FA decoction 30 g/kg twice a day for 7 days): 11200 ± 1410 ng·h/mL
Cmax ([1]; oral FA decoction 30 g/kg): 2580 ± 388 ng/mL
Tmax ([1]; oral FA decoction 30 g/kg): 0.81 ± 0.26 h
MRT last ([1]; oral FA decoction 30 g/kg): 3.89 ± 0.21 h
half-life ([1]; oral FA decoction 30 g/kg): 5.67 ± 2.9 h
AUC(0–t) elevation, 30 g/kg compared with the 15 g/kg group ([1]; rat, oral FA decoction): 3.05 fold
C max elevation, 30 g/kg compared with the 15 g/kg group ([1]; rat, oral FA decoction): 3.72 fold
Short-term stability, Mean ± SD [2, 4]: 3549.93 ± 455.39 ng/mL
Freeze-thaw stability, Mean ± SD [2, 4]: 3552.68 ± 409.74 ng/mL
Long-term stability, Mean ± SD [2, 4]: 3550.10 ± 450.62 ng/mL
Short-term stability, Mean ± SD [2, 5]: 13.03 ± 2.28 ng/mL
Freeze-thaw stability, Mean ± SD [2, 5]: 13.44 ± 4.79 ng/mL
Long-term stability, Mean ± SD [2, 5]: 13.32 ± 5.05 ng/mL
Short-term stability, Mean ± SD [2, 6]: 217.05 ± 22.66 ng/mL
Freeze-thaw stability, Mean ± SD [2, 6]: 219.51 ± 35.50 ng/mL
Long-term stability, Mean ± SD [2, 6]: 220.06 ± 34.22 ng/mL
Stability in FA decoction, Content ([3]; 0h): 0.27 mg/mL
Stability in FA decoction, Content ([3]; 2h): 0.26 mg/mL
Stability in FA decoction, Content ([3]; 4h): 0.26 mg/mL
Stability in FA decoction, Content ([3]; 8h): 0.26 mg/mL
Stability in FA decoction, Content ([3]; 12h): 0.26 mg/mL
Stability in FA decoction, Content ([3]; 24h): 0.25 mg/mL

From article PMC5971337, “Development of an Ultra-High Performance Liquid Chromatography Method for Simultaneous Determination of Six Active Compounds in Fructus aurantii and Rat Plasma and Its Application to a Comparative Pharmacokinetic Study in Rats Administered with Different Doses” (Journal of Analytical Methods in Chemistry, 2018)
